Experimental data: US20040170601A1, “Method of improving the growth performance of an animal” (priority 2001, published 2004)
“Also recorded” adds a separate entry of the source.

What was measured:
haemorrhagic E. coli = experiment: Example 6: haemorrhagic E. coli challenge of weaner pigs; format: in vivo; parameters: decrease in faecal shedding (total faecal culture scores) compared to saline treated controls / reduction in clinical signs compared to saline controls / reduction in E. coli culture scores at post-mortem compared to saline controls / reduction of bacterial load in the small intestine (foregut) compared with saline controls: concentration or dose not given beside the values
Experimental: Male weaner pigs, with a mean weight of 5.4 kg were allocated to groups of 8, with the mean weight being equalised between groups. Pigs were housed in group pens. Pigs were provided with pelleted feed and water ad libitum.
Pigs were treated with cytokines or the antibiotic, Apralan, and challenged with E. coli according to the schedule outlined in FIG. 42. E. coli were delivered orally in an 8 ml dose containing 10^8 cfu/ml. Blood was sampled from pigs by venipuncture at −2 days, day 0, and +6 days from initial challenge with E. coli as outlined in FIG. 42. Blood was assayed for immunological parameters as previously described. Pigs were weighed at day −2 and at the end of the trial on day 7.
Faecal samples were taken from each pig daily from day 2 to day 6 after challenge; these samples were cultured on sheep blood agar to quantify E. coli load. The condition of faeces on each day of challenge was noted as normal, wet or diarrhoea, as an indication of clinical signs.
At the conclusion of the experiment, pigs were euthanased and samples were taken from different areas in the gastro-intestinal tract, including the small intestine (25%, 50% and 75% along the length of the small intestine), the caecum and colon, and from the faeces. These post-mortem samples were also plated out on sheep blood agar to quantify E. coli load. Growth on sheep blood agar was scored from 0 to 5 (where 0 was no growth, 1 signified growth in the primary inoculum, 2 signified growth in the first streak, 3 signified growth in the 2nd streak, 4 signified growth in the 3rd streak, and 5 signified growth of E. coli in the final streak), and group means and standard errors were calculated.

[1] = system: Actinobacillus pleuropneumoniae; experiment: Example 12: Actinobacillus pleuropneumoniae (App) challenge: growth, clinical signs, lung pathology; format: in vivo, pigs
From the text: The following experiment was designed to determine whether IL-4 could improve the growth of immunologically challenged pigs compared to saline treated controls and positive controls treated with the non-steroidal anti-inflammatory drug (NSAID) Flunix. It was also devised to determine whether IL-4 could be delivered via plasmids.
Male pigs, with a mean starting weight of 52 kg, were allocated to 5 treatment groups (Table 8). Pigs were housed in group pens, with each pen containing a replicate from each of the treatment groups. Pigs were provided with pelleted feed and water ad libitum.
Recombinant IL-4 and saline were administered as 2 ml doses, given subcutaneously behind the ear. Plasmids were administered in 1 ml doses, given intramuscularly in the hind-leg. Flunix was administered as a 2 ml dose according to the manufacturer's instructions, and delivered intramuscularly in the neck. The timetable of administration is outlined in Table 9 below.
(§1) Due to the intermittent availability of Actinobacillus pleuropneumoniae (App), the App challenge was performed separately on the 2 rooms, resulting in different time schedules for each room, as outlined in Table 9. Prior to each challenge, pigs were treated with recombinant cytokines, flunix or plasmids as described above; the timing of treatments with respect to challenge is described in Table 9. Pigs were anaesthetised and infected intratracheally with 7.5×10^5 […] on day 0.
(§2) Briefly, assays were performed on blood samples using standard techniques, including: white blood cell counts performed using an automated cell counter; differential cell counts performed manually on stained blood smears; lymphocyte subset enumeration via flow cytometry; neutrophil function determined by flow cytometry; lymphocyte proliferation determined using a thymidine incorporation assay in response to mitogens; total IgG and IgA levels were identified using indirect sandwich ELISA; levels of mRNA for pro-inflammatory cytokines was detected by RT-PCR. TNF levels were additionally measured in serum by bioassay using L929 target cells. Pigs were weighed weekly from delivery of plasmids and for 2 weeks after challenge.
IL-4 delivered as a recombinant caused a reduction of 36% in the presence of clinical symptoms compared to pigs treated with saline, while IL-4 delivered in plasmid form produced a reduction of 62% compared to saline-treated controls (45% reduction compared to plasmid-treated controls).
At the conclusion of the trial, pigs were euthanased and the lungs removed for post-mortem examination. Lungs were scored for pleurisy from 0-5 (FIG. 79) and the degree of pleuropneumonia was determined by weighing affected lung and expressed as a percentage of total lung weight (FIG. 80).

TNFα = experiment: Example 12: TNFα in serum after App challenge (bioassay, L929 target cells); format: in vivo, pigs; conditions: day 13 after challenge
Experimental: as §1
[…] Blood was assayed for immunological parameters as previously described.
as §2

[2] = system: Brachyspira (Serpulina) hyodysenteriae; experiment: Example 7: swine dysentery challenge, IL-5 prophylactic; format: in vivo, pigs
From the text: One aim of this example was to determine whether IL-5 could improve the health of pigs infected with an enteric inflammatory pathogen causing swine dysentery, Brachyspira (Serpulina) hyodysenteriae. A further aim was to determine whether IL-5 could improve the growth rate of pigs under conditions of challenge with swine dysentery.
Male pigs with a mean starting weight of 6.5 kg, were allocated to treatment groups consisting of eight pigs (Table 6). Pigs were housed in group pens, with each pen containing a replicate from each of the treatment groups. One group of 8 pigs was housed in a separate room and left uninfected to act as untreated controls. Pigs were provided with pelleted feed and water ad libitum.
Prior to swine dysentery challenge, pigs were treated with recombinant IL-5 or saline, as described in Table 6. Cytokines and the antibiotic, Lincomycin, were delivered by intramuscular injection at intervals outlined in Table 7. Pigs were infected with Brachyspira hyodysenteriae at day 0, day 1 and day 2, given as an oral bolus of 120 ml of spirochaete culture in log phase of growth, containing approximately […].
Faecal swabs and blood samples were taken from each pig at intervals described in Table 7. Faecal swabs were cultured for the presence of spirochaetes. Blood samples were assayed for immunological parameters as described in example 1 above. Pigs were weighed at weekly intervals throughout the experiment, which was terminated by euthanasia on days 19 and 20 after the initial challenge. At post mortem swabs from areas of the hindgut were cultured for the presence of spirochaetes, and the gross pathological condition of the gastro-intestinal tissue noted.

[3] = system: Brachyspira (Serpulina) hyodysenteriae; experiment: Example 13: swine dysentery challenge, IL-4 prophylactic; format: in vivo, pigs
From the text: The aim of this example was to determine whether IL-4 could improve the health of pigs infected with an enteric inflammatory pathogen causing swine dysentery, Brachyspira (Serpulina) hyodysenteriae. A further aim was to determine whether IL-4 could improve the growth rate of pigs under conditions of challenge with swine dysentery.
Male pigs with a mean starting weight of 6.5 kg, were allocated to treatment groups consisting of eight pigs (Table 10). Pigs were housed in group pens, with each pen containing a replicate from each of the treatment groups. One group of 8 pigs was housed in a separate room and left uninfected to act as untreated controls. Pigs were provided with pelleted feed and water ad libitum.
Prior to swine dysentery challenge, pigs were treated with recombinant IL-4 or saline, as described in Table 10. Cytokines and the antibiotic, Lincocin, were delivered by intramuscular injection at intervals outlined in Table 11. Pigs were infected with Brachyspira hyodysenteriae at day 0, day 1 and day 2, given as an oral bolus of 120ml of spirochaete culture in log phase of growth, containing approximately […] cells.
Faecal swabs and blood samples were taken from each pig at intervals described in Table 11. Faecal swabs were cultured for the presence of spirochaetes. Blood samples were assayed for immunological parameters as described in example 1 above. Pigs were weighed at weekly intervals throughout the experiment, which was terminated by euthanasia on days 19 and 20 after the initial challenge. At post mortem swabs from areas of the hindgut were cultured for the presence of spirochaetes, and the gross pathological condition of the gastro-intestinal tissue noted.

[4] = cited from earlier work

Which “clinical signs (wet faeces or diarrhoea)” value (haemorrhagic E. coli; 5 days after challenge) does the source give for `CN[C@@H]1[C@@H](O[C@H]2O[C@H](CO)[C@@H](N)[C@H](O)[C@H]2O)OC2C[C@@H](N)[C@@H](O[C@H]3[C@H](O)[C@@H](O)[C@H](N)C[C@@H]3N)OC2[C@@H]1O` (stereo partly drawn) [Apralan, reference compound] here?
The value was “less recordings of wet faeces than did saline controls, but also displayed a minor increase in the prevalence of diarrhoea”.

And the “E. coli shedding in faeces (faecal culture)” value (haemorrhagic E. coli; day 2 to day 6 after challenge)?
Its value is “decreased E. coli shedding in faeces; also recorded: least bacterial shedding of all treatments”.

What about the “decrease in faecal shedding (total faecal culture scores) compared to saline treated controls” value (haemorrhagic E. coli; entire challenge period) of the same compound?
Its value is 80%.

What about the “appetite (daily feed intake per pig) during E. coli challenge” value (haemorrhagic E. coli; pig, in vivo) of the same compound?
Its value is “improved appetite compared to saline treated pigs”.

What about the “bacterial load in areas of the gastro-intestinal tract at post-mortem” value (haemorrhagic E. coli; pig, in vivo) of the same compound?
Its value is “reduced bacterial load in most areas of the gastro-intestinal tract”.

What about the “group mean total E. coli culture score at post-mortem (out of a possible 30)” value (haemorrhagic E. coli; pig, in vivo) of the same compound?
Its value is 12.

And the “reduction in clinical signs compared to saline controls” value (haemorrhagic E. coli; pig, in vivo)?
Its value is 27%.

And the “bacterial loads in the hindgut area (caecum and colon)” value (haemorrhagic E. coli; post-mortem)?
The value was “lowest of all treatments”.

And the “reduction of bacterial load in the small intestine (foregut) compared with saline controls” value (haemorrhagic E. coli; post-mortem)?
Its value is 32%.

What does the source list for `CNC[C@H](O)[C@@H](O)[C@H](O)[C@H](O)CO.Cc1c(Nc2ncccc2C(=O)O)cccc1C(F)(F)F` [flunix, reference compound]?
growth during the (first) week of App challenge ([1]; pig, in vivo): weight loss; growth in the second week of challenge ([1]; pig, in vivo): poorest growth of all groups in the second week of challenge; pleurisy at necropsy (score 0-5) ([1]; pig, in vivo): less pleurisy than the saline controls; weight gain over the 2 week period following challenge with App ([1]; pig, in vivo): lowest growth over the 2 week challenge period; weight gain over the 2 week period following challenge with App ([1]; pig, in vivo, listed as Flunix): poorest performing treatment in terms of growth; percentage of lung affected by App lesions ([1]; vs saline-treated controls): greatly reduced; TNFα production (serum) (TNFα): failed to inhibit the production of TNFα

For `CCC[C@@H]1C[C@@H](C(=O)N[C@@H]([C@H]2O[C@H](SC)[C@H](O)[C@@H](O)[C@H]2O)[C@@H](C)O)N(C)C1` [Lincocin, Lincomycin, reference compound], which “spirochaete shedding in faeces (faecal culture)” value ([2]; after challenge) is on record?
The value was “no signs of faecal spirochaete shedding by day 14”.

And the “reduction in the number of spirochaetes compared to saline treated pigs” value (“reduction in the number of spirochaetes” for short) ([2]; anterior colon, post mortem)?
The value was 89%.

What about the “reduction in the number of spirochaetes” value ([2]; caecum, post mortem) of the same compound?
The value was 93%.

And the “reduction in the number of spirochaetes” value ([2]; faecal, post mortem)?
The value was 100%.

What about the “incidence of clinical signs in faeces (of 8 pigs)” value ([2]; post mortem) of the same compound?
The value was “one”.

And the “reduction in the number of spirochaetes” value ([2]; posterior colon, post mortem)?
Its value is 88%.

And the “spirochaete shedding in faeces (faecal culture)” value ([3]; after challenge)?
Its value is “no signs of faecal spirochaete shedding by day 14”.

What about the “gross pathology associated with dysentery” value ([3]; anterior colon, post mortem) of the same compound?
The value was “reduced the incidence of pathological symptoms in anterior and posterior colon”.

And the “total weight gained over the challenge period” value ([3]; day 7 prior to challenge to slaughter at days 19 and 20)?
The value was 6.9 kg.

What about the “mean weight at the end of the trial” value ([3]; days 19 and 20 after infection) of the same compound?
The value was 12.2 kg.

What about the “incidence of clinical signs in faeces (of 8 pigs)” value ([3]; post mortem) of the same compound?
The value was “one”.

What about the “gross pathology associated with dysentery” value ([3]; posterior colon, post mortem) of the same compound?
The value was “reduced the incidence of pathological symptoms in anterior and posterior colon”.

For `CC(=O)OC/C=C(C)/C=C/C=C(C)/C=C/C1=C(C)CCCC1(C)C` [Retinyl acetate], which “IL-5 level and IL-4- and IL-5-containing cells in small intestinal mucosa” value ([4]; mice fed low-protein diet, 1 mg) is on record?
Its value is “significantly restored the IL-5 level and the number of IL-4- and IL-5-containing cells”.

What about the “anti-CT IgA level in intestinal mucosa” value ([4]; mouse, in vivo) of the same compound?
Its value is “prevented the decline of anti-CT IgA level in the protein-deficient mice”.
